Reference: PMC5315687 (ACS chemical biology, 2017)

Biological target: T1, His6-MibD (Microbispora sp. ATCC PTA-5024, UniProt W2ESX4)
T1 sequence (W2ESX4 1-215): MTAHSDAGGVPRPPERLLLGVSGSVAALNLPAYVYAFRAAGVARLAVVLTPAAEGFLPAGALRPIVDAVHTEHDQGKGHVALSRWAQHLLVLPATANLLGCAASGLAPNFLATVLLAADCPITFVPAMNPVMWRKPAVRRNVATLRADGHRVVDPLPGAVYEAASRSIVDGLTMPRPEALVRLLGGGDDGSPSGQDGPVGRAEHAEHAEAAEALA
Assay: flavin isolated from heat-denatured protein, MALDI-TOF MS
Type: binding
Conditions: non-covalent, co-purified

Cc1cc2nc3c(=O)[nH]c(=O)nc-3n(C[C@H](O)[C@H](O)[C@H](O)COP(=O)(O)OP(=O)(O)OC[C@H]3O[C@@H](n4cnc5c(N)ncnc54)[C@H](O)[C@@H]3O)c2cc1C [FAD] was tested, and the “flavin isolated from heat-denatured protein, MALDI-TOF MS” value was “The isolation of FAD from His6-MibD suggests the cofactor is not covalently linked”.
